The Kinase Knowledgebase extract (Sharma et al. 2016)
pKi: −log10 of the molar value.

target: EGFR (human) (UniProt P00533)
Sequence (P00533 whole entry, looked up): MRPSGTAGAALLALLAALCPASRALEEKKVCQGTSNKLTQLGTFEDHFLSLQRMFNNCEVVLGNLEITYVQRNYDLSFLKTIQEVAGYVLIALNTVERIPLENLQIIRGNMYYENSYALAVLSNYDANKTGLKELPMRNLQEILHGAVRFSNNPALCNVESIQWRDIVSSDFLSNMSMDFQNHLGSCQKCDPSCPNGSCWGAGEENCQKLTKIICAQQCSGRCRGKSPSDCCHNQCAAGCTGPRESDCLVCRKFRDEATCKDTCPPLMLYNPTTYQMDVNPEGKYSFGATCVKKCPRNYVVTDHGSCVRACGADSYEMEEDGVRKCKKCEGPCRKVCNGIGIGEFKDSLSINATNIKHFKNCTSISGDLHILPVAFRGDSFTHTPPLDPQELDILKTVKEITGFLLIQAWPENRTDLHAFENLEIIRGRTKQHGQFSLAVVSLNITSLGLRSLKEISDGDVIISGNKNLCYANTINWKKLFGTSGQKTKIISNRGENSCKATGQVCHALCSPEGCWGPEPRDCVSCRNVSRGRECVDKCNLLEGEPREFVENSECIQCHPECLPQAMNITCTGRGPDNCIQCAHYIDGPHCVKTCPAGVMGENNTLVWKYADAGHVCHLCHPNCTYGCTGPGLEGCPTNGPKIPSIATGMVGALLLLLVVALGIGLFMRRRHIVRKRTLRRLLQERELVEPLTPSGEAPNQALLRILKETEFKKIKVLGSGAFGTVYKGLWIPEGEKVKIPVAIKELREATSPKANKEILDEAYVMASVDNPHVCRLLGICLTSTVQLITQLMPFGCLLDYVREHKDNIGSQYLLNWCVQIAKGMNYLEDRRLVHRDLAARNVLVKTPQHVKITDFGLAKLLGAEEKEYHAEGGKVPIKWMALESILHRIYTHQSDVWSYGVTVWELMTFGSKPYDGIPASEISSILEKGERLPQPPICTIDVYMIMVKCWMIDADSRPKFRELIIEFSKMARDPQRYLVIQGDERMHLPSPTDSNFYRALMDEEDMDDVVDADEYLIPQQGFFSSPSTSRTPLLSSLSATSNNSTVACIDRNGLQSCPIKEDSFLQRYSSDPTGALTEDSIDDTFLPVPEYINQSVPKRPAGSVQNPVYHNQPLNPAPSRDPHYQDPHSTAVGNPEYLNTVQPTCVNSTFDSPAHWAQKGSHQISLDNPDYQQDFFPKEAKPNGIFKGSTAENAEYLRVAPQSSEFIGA

First: c1ccc2c(CNc3ccnc4[nH]c5ccccc5c34)cccc2c1
Second: c1ccc(CNc2ccnc3[nH]c4ccccc4c23)cc1
The pKi of the first is 0.63 log units lower: 6.44 for the first, 7.07 for the second. The second binds more tightly here.

First: C[C@H](Nc1ccnc2[nH]c3ccccc3c12)c1ccccc1
Second: C[C@@H](Nc1ccnc2[nH]c3ccccc3c12)c1ccccc1
The pKi of the first is 1.44 log units higher: 7.52 for the first, 6.08 for the second. The first binds more tightly here.

Going from `c1cncc(CNc2ccnc3[nH]c4ccccc4c23)c1` to `Clc1cccc(CNc2ccnc3[nH]c4ccccc4c23)c1`, the pKi rises from 5.42 to 7.00 (1.58 log units).

Going from `Brc1ccc2[nH]c3nccc(NCc4ccccc4)c3c2c1` to `Clc1ccc(CNc2ccnc3[nH]c4ccccc4c23)cc1`, the pKi falls from 7.37 to 5.98 (1.39 log units). The first binds more tightly here.

Compared with `COc1ccc(CNc2ccnc3[nH]c4ccccc4c23)cc1`, `c1ccc(CCNc2ccnc3[nH]c4ccccc4c23)cc1` is 0.37 log units lower in pKi: 6.35 for the first, 5.98 for the second. The first binds more tightly here.
